B1: PE001: variant of the Penicillium oxalicum glucoamylase of SEQ ID NO: 106 having a K79V substitution (protein, listed as Penicillium oxalicum)
chain: RPDPKGGNLTPFIHKEGERSLQGILDNLGGRGKKTPGTAAGLFIASPNTENPNYYYTWTRDSALTAKCLIDLFEDSRAVFPIDRKYLETGIRDYKSSQAILQSVSNPSGTLKDGSGLGEPKFEIDLNPFSGAWGRPQRDGPALRATAMITYANYLISHGQKSDVSQVMWPIIANDLAYVGQYWNNTGFDLWEEVDGSSFFTIAVQHRALVEGSQLAKKLGKSCDACDSQPPQILCFLQSFWNGKYITSNINTQASRSGIDLDSVLGSIHTFDPEAACDDATFQPCSARALANHKVYVDSFRSIYKINAGLAEGSAANVGRYPEDVYQGGNPWYLATLGASELLYDALYQWDRLGKLEVSETSLSFFKDFDATVKIGSYSRNSKTYKKLTQSIKSYADGFIQLVQQYTPSNGSLAEQYDRNTAAPLSANDLTWSFASFLTATQRRDAVVPPSWGAKSANKVPTTCSASPVVGTYKAPTATFSSKTKCVPAKDIVPITFYLIENTYYGENVFMSGNITALGNWDAKKGFPLTANLYTQDQNLWFASVEFIPAGTPFEYKYYKVEPNGDITWEKGPNRVFVAPTGCPVQPHSNDVWQF
B2: Pfu S: commercial product Pyrococcus furiosus protease (Pfu S), SEQ ID NO: 111 (protein, listed as Pyrococcus furiosus)
chain: AELEGLDESAAQVMATYVWNLGYDGSGITIGIIDTGIDASHPDLQGKVIGWVDFVNGRSYPYDDHGHGTHVASIAAGTGAASNGKYKGMAPGAKLAGIKVLGADGSGSISTIIKGVEWAVDNKDKYGIKVINLSLGSSQSSDGTDALSQAVNAAWDAGLVVVVAAGNSGPNKYTIGSPAAASKVITVGAVDKYDVITSFSSRGPTADGRLKPEVVAPGNWIIAARASGTSMGQPINDYYTAAPGTSMATPHVAGIAALLLQAHPSWTPDKVKTALIETADIVKPDEIADIAYGAGRVNAYKAINYDNYAKLVFTGYVANKGSQTHQFVISGASFVTATLYWDNANSDLDLYLYDPNGNQVDYSYTAYYGFEKVGYYNPTDGTWTIKVVSYSGSANYQVDVVSDGSLSQPGSS

Assays:
multi-strain LAB culture = test: SSF of control mash with 1% w/w infected mash, AA13 candidates, HPLC of organic acids and ethanol (Example 3); format: cell-based; conditions: SSF 32° C. up to 24 hours, 20% DS; for % delta Ethanol / % delta Lactic Acid: vs No Treatment
Protocol: A control mash was prepared in-house with an industry relevant blend of AA369 and Protease Pfu using a Lab-O-Mat incubator for 2 hours at 85° C. and 36% DS to simulate typical industry conditions. The mash was then frozen prior to use in SSF. An infected mash was prepared by infecting the control mash with a multi-strain LAB culture grown in MRS. The bacteria in control mash was incubated overnight, and then frozen with 20% glycerol. For this experiment, 1% weight/weight of the infected mash was mixed into the control mash. This mimics an infection event at a large-scale ethanol facility. For SSF, all mash was prepared with 1000 ppm of urea to aid with yeast fermentation. All treatments were dosed with a baseline commercial glucoamylase GSA, while AA13 candidates were dosed at either 10 ug/g-DS or 50 ug/g-DS. SSF was performed at 5 g scale with 10 uL/g rehydrated Ethanol Red yeast at 32° C. for up to 24 hours at 20% DS. At the end of fermentation, samples were deactivated with 50 uL of 40% sulfuric acid and then centrifuged. The supernatant was filtered through a 0.2 μm filter and then measured for soluble carbohydrates and organic acids using an ion-exchange H-column on HPLC.

[1] = relative to the parent Penicillium oxalicum glucoamylase; cited from earlier work
[2] = pH 4.5; cited from earlier work

Molecule | average Ethanol (multi-strain LAB culture; AA13 dose 10 ug/g-DS) | average Lactic Acid (multi-strain LAB culture; AA13 dose 10 ug/g-DS) | % delta Ethanol (multi-strain LAB culture; AA13 dose 10 ug/g-DS) | % delta Lactic Acid (multi-strain LAB culture; AA13 dose 10 ug/g-DS) | average Ethanol (multi-strain LAB culture; AA13 dose 50 ug/g-DS) | average Lactic Acid (multi-strain LAB culture; AA13 dose 50 ug/g-DS) | % delta Ethanol (multi-strain LAB culture; AA13 dose 50 ug/g-DS) | % delta Lactic Acid (multi-strain LAB culture; AA13 dose 50 ug/g-DS) | average Ethanol (multi-strain LAB culture; Penicillin dose 25 ppm) | average Lactic Acid (multi-strain LAB culture; Penicillin dose 25 ppm) | % delta Ethanol (multi-strain LAB culture; Penicillin dose 25 ppm) | % delta Lactic Acid (multi-strain LAB culture; Penicillin dose 25 ppm) | sensitivity to protease degradation [1] | thermostability (Relative Activity 80° C./70° C.) [2] | thermostability (Relative Activity 90° C./70° C.) [2]
Acrostalagmus luteoalbus: Acrostalagmus luteoalbus AA13 polypeptide of SEQ ID NO: 129 | 78.9 g/L | 3.0 g/L | 1.7% | −10.9% | 80.0 g/L | 2.9 g/L | 3.0% | −13.2% |  |  |  |  |  |  | 
Aspergillus insuetus: Aspergillus insuetus AA13 polypeptide of SEQ ID NO: 130 | 76.7 g/L | 3.4 g/L | −1.2% | 1.7% | 77.2 g/L | 3.4 g/L | −0.6% | 2.1% |  |  |  |  |  |  | 
Cladosporium gossypiicola: Cladosporium gossypiicola AA13 polypeptide of SEQ ID NO: 131 | 77.5 g/L | 3.3 g/L | −0.2% | −1.8% | 78.5 g/L | 3.2 g/L | 1.1% | −4.6% |  |  |  |  |  |  | 
Penicillin [reference compound] |  |  |  |  |  |  |  |  | 80.1 g/L | 1.2 g/L | 3.1% | −62.4% |  |  | 
Penicillium antarcticum: Penicillium antarcticum AA13 polypeptide of SEQ ID NO: 135 | 76.4 g/L | 3.4 g/L | −1.6% | 2.2% | 76.2 g/L | 3.4 g/L | −1.8% | 3.0% |  |  |  |  |  |  | 
Penicillium concentricum: Penicillium concentricum AA13 polypeptide of SEQ ID NO: 136 | 78.1 g/L | 3.3 g/L | 0.6% | −0.6% | 78.2 g/L | 3.2 g/L | 0.7% | −3.2% |  |  |  |  |  |  | 
Penicillium hoeksii: Penicillium hoeksii AA13 polypeptide of SEQ ID NO: 137 | 78.1 g/L | 3.2 g/L | 0.6% | −2.8% | 79.1 g/L | 3.2 g/L | 1.9% | −4.8% |  |  |  |  |  |  | 
Penicillium paxilli: Penicillium paxiffi AA13 polypeptide of SEQ ID NO: 138 | 77.8 g/L | 3.2 g/L | 0.2% | −4.9% | 78.1 g/L | 3.1 g/L | 0.5% | −5.7% |  |  |  |  |  |  | 
Penicillium roseopurpureum: Penicillium roseopurpureum AA13 polypeptide of SEQ ID NO: 139 | 78.0 g/L | 3.3 g/L | 0.5% | −1.3% | 78.1 g/L | 3.3 g/L | 0.6% | −1.8% |  |  |  |  |  |  | 
Penicillium samsonianum: Penicillium samsonianum AA13 polypeptide of SEQ ID NO: 140 | 77.1 g/L | 3.4 g/L | −0.6% | 2.2% | 77.4 g/L | 3.4 g/L | −0.4% | 2.0% |  |  |  |  |  |  | 
Penicillium sclerotiorum: Penicillium sclerotiorum AA13 polypeptide of SEQ ID NO: 141 | 76.4 g/L | 3.5 g/L | −1.6% | 6.9% | 78.1 g/L | 3.3 g/L | 0.6% | −0.9% |  |  |  |  |  |  | 
Penicillium steckii: Penicillium steckii AA13 polypeptide of SEQ ID NO: 145 | 76.6 g/L | 3.5 g/L | −1.4% | 4.5% | 77.3 g/L | 3.3 g/L | −0.4% | −1.0% |  |  |  |  |  |  | 
Penicillium viticola: Penicillium viticola AA13 polypeptide of SEQ ID NO: 146 | 76.6 g/L | 3.4 g/L | −1.3% | 2.2% | 77.8 g/L | 3.4 g/L | 0.2% | 2.8% |  |  |  |  |  |  | 
Penicillium vulpinum: Penicillium vulpinum AA13 polypeptide of SEQ ID NO: 147 | 79.0 g/L | 3.2 g/L | 1.7% | −2.9% | 78.3 g/L | 3.5 g/L | 0.9% | 4.6% |  |  |  |  |  |  | 
B1 |  |  |  |  |  |  |  |  |  |  |  |  | reduced sensitivity to protease degradation relative to the parent |  | 
B2 |  |  |  |  |  |  |  |  |  |  |  |  |  | 110% | 103%

Reference: patent publication US11795481B2, “Processes for producing a fermentation product” (Novozymes A/S, priority 2017, dated 2023)
